{"source": "patent US7750148B2", "about": "“Intermediate compound for the production of β-lactamase-resistant cephalosporin ester compounds and salts thereof” (Zhejiang Yongning Pharmaceutical Factory, priority 2003, dated 2010)", "key": {"[1]": {"system": "Proteus morganii 49086", "assay": "In vitro antibacterial activity (MIC, agar double dilution)", "assay_type": "cell-based", "set-up": "MIC (as restated in the conclusions): unit not given here", "conditions": "for antibacterial activities enhanced versus CTM or CRX used solely: YR-1 vs CTM, YR-2 vs CRX", "description": "(§1) tested samples YR-1, YR-2 were the ones prepared in example 1 and example 5 respectively, control samples were cefetamet sodium (CTM), cefuroxime sodium (CRX), cefetamet sodium+sulbactam sodium (CTM+SBT) (molar ratio 1:1), cefuroxime+sulbactam sodium (CRX+SBT) (molar ratio 1:1). All control samples (have been sold on the market) were supplied by Zhejiang Yongning pharmaceutical factory.\nStaphylococcus aureus 26003, Diplococcus lanceolatus 31002, E. coli 44102, Shigella sonnet 51081, Shigella bogdii 51313, Shigella flexneri 51573, Proteus mirabilis 49005, Bacillus proteus 49085, Proteus morganii 49086, Pseudomonas aeruginosa 10124, Bacillus pneumoniae 46101, Salmonella enteritidis 50041, Salmonella typhi 50097, Citrobacter 48017, Candida ciferii 41002 were supplied by Shanghai Hygienic and Antiepidemic Station.\n(§2) Mueller-Hinton Agar (M.H) culture medium, batch number 20040528 (Shanghai Reagent Supply Research Center, China Diarrhea Disease Control).\n(§3) Adopted agar double dilution, inoculated using multipoint inoculator, inoculated 10^5CFU/ML each point, cultured for 24 hours at 37° C., observed and recorded the results, set the least concentration of the antibacterial drug that can inhibit bacteria growth as the minimum inhibitory concentration (MIC)."}, "[2]": {"system": "Staphylococcus epidermidis 26069", "assay": "In vitro antibacterial activity (MIC, agar double dilution)", "assay_type": "cell-based", "conditions": "Staphylococcus epidermidis 26069, 10^5CFU/ML each point, 24 hours at 37° C.", "description": "as §1\n(§4) Staphylococcus epidermidis 26069 and Bacillus aerogenes 45102 were supplied by Beijing Drug & Biology Product Appraisal Bureau.\nas §2, §3"}, "[3]": {"system": "Bacillus aerogenes 45102", "assay": "In vitro antibacterial activity (MIC, agar double dilution)", "assay_type": "cell-based", "description": "as §1, §4, §2, §3"}, "[4]": {"assay": "Mouse maximum tolerable dose experiment (acute toxicity)", "assay_type": "in vivo, Kunming mice", "conditions": "for abnormalities in the organs after killed (autopsy) / symptoms of toxic reactions: 5 g/kg intragastric; for abnormalities in the organs after killed (autopsy): after 7 days observation; for symptoms of toxic reactions: fasted for 16 hours; for symptoms of toxic reactions / Death rate: 7 days observation; for Death rate / Death number during observation: 5 g/kg/24 hr intragastric", "protocol": "tested samples (YR-1, YR-2) are the same as above.\nStrain: Kunming mice; source: Animal Facility of Shanghai Institute of Pharmaceutical Industry; certificate number: Hudonghezhengzi No. 107; animal numbers: 20; Sex: same number of male and female mice; Body weight: 18-21 g; fast time: 16 hours.\nPreparation of samples: 5 g/kg (prepared with 5% carboxymethyl cellulose CMC); volume accepted: 0.6 ml/20 g body weight/each time; administration times: once; dosage: 5 g/kg/24 hr\nIntragastric Administration\n20 mice, 10 male and 10 female, were given YR-1 or YR-2 via intragastric administration, observed manifestation of mice toxic symptom immediately after administration, recorded mice death number.\nObserved manifestation of mice toxic symptom immediately after administration, observed twice each day (morning and evening).\nToxic reaction: recorded behaviors of mice, skin, respiration, urination and defecation, appetite, checked if there are abnormal secretions appeared in the nose, eye and mouth.\nObservation period: 7 days, killed all the surviving mice after observation period, and autopsied to see if there is any abnormality existed in the mice organs."}}, "note": "Where two headings read alike, the source gives them in different places.", "data": [{"compound": "5-thia-1-aza-bicyclo [4,2,0] octane-2-ene-2-carboxylic acid, 7-[[(2-amino-4-thiazolyl) (methoxy imine) acetyl]amino]-3-methyl-8-oxo-, [[3,3-dimethyl-4,4-dioxy-7-oxo-4-thia-1-aza-bicyclo [3,2,0] heptane-2-group]carbonyloxy]oxy]methyl ester [YR-1]", "values": [{"measurement": "MIC (as restated in the conclusions)", "setting": "[1]; Proteus morganii 49086", "result": 0.78}, {"measurement": "MIC of the drug to bacteria", "setting": "[1]; Proteus morganii 49086, 10^5CFU/ML each point, 24 hours at 37° C.", "result": 0.78, "unit": "µg/mL"}, {"measurement": "antibacterial activities enhanced versus CTM or CRX used solely", "setting": "[1]; Proteus morganii 49086", "result": "one hundred times"}, {"measurement": "MIC of the drug to bacteria", "setting": "[2]", "result": 50, "unit": "µg/mL"}, {"measurement": "MIC of the drug to bacteria", "setting": "[3]; Bacillus aerogenes 45102, 10^5CFU/ML each point, 24 hours at 37° C.", "result": 0.39, "unit": "µg/mL"}, {"measurement": "abnormalities in the organs after killed (autopsy)", "setting": "[4]; Kunming mice", "result": "no abnormalities were observed in the organs"}, {"measurement": "symptoms of toxic reactions", "setting": "[4]; Kunming mice", "result": "no obvious abnormal symptoms of toxic reactions"}, {"measurement": "Death rate", "setting": "[4]; female mice", "result": 0, "unit": "%"}, {"measurement": "Death number during observation", "setting": "[4]; female mice, day 1", "result": 0}, {"measurement": "Death number during observation", "setting": "[4]; female mice, day 2", "result": 0}, {"measurement": "Death number during observation", "setting": "[4]; female mice, day 3", "result": 0}, {"measurement": "Death number during observation", "setting": "[4]; female mice, day 4", "result": 0}, {"measurement": "Death number during observation", "setting": "[4]; female mice, day 5", "result": 0}, {"measurement": "Death number during observation", "setting": "[4]; female mice, day 6", "result": 0}, {"measurement": "Death number during observation", "setting": "[4]; female mice, day 7", "result": 0}, {"measurement": "Death rate", "setting": "[4]; male mice", "result": 0, "unit": "%"}, {"measurement": "Death number during observation", "setting": "[4]; male mice, day 1", "result": 0}, {"measurement": "Death number during observation", "setting": "[4]; male mice, day 2", "result": 0}, {"measurement": "Death number during observation", "setting": "[4]; male mice, day 3", "result": 0}, {"measurement": "Death number during observation", "setting": "[4]; male mice, day 4", "result": 0}, {"measurement": "Death number during observation", "setting": "[4]; male mice, day 5", "result": 0}, {"measurement": "Death number during observation", "setting": "[4]; male mice, day 6", "result": 0}, {"measurement": "Death number during observation", "setting": "[4]; male mice, day 7", "result": 0}]}, {"compound": "CON=C(C(=O)NC1C(=O)N2C(C(=O)OCOC(=O)C3N4C(=O)CC4S(=O)(=O)C3(C)C)=C(COC(N)=O)CSC12)c1ccco1", "note": "(centres unmarked) [YR-2, 5-thia-1-aza-bicyclo [4,2,0] octane-2-ene-2-carboxylic acid, 7-[[(2-furane (methoxy imine)acetyl)amino]-3-[[(aminocarbonyloxy)oxy]methyl]-8-oxo-, [[3,3-dimethyl-4,4-dioxy-7-oxo-4-thia-1-aza-bicyclo[3,2,0]heptane-2-group]carbonyloxy]oxy]methyl ester]", "values": [{"measurement": "MIC", "setting": "[1]; Morganella morganii, 49086, 24 h, read-out: MIC of the drug to bacteria", "result": 25, "unit": "µg/mL"}, {"measurement": "MIC", "setting": "[1]; Morganella morganii, 49086, read-out: MIC (as restated in the conclusions)", "result": 25000, "unit": "µg/mL"}, {"measurement": "antibacterial activities enhanced versus CTM or CRX used solely", "setting": "[1]; Proteus morganii 49086", "result": "four times"}, {"measurement": "MIC", "setting": "[2]; read-out: MIC of the drug to bacteria", "result": 0.78, "unit": "µg/mL"}, {"measurement": "MIC", "setting": "[3]; Bacillus, 45102, 24 h, read-out: MIC of the drug to bacteria", "result": 6.25, "unit": "µg/mL"}, {"measurement": "abnormalities in the organs after killed (autopsy)", "setting": "[4]; Kunming mice", "result": "no abnormalities were observed in the organs"}, {"measurement": "symptoms of toxic reactions", "setting": "[4]; Kunming mice", "result": "no obvious abnormal symptoms of toxic reactions"}, {"measurement": "LD50 at 7 days", "setting": "[4]; both sexes, mouse, in vivo, po, 5 g/kg, Kunming mice, intragastric administration, once", "result": "> 5000", "unit": "mg/kg"}, {"measurement": "Death rate", "setting": "[4]; female mice", "result": 0, "unit": "%"}, {"measurement": "Death number during observation", "setting": "[4]; female mice, day 1", "result": 0}, {"measurement": "Death number during observation", "setting": "[4]; female mice, day 2", "result": 0}, {"measurement": "Death number during observation", "setting": "[4]; female mice, day 3", "result": 0}, {"measurement": "Death number during observation", "setting": "[4]; female mice, day 4", "result": 0}, {"measurement": "Death number during observation", "setting": "[4]; female mice, day 5", "result": 0}, {"measurement": "Death number during observation", "setting": "[4]; female mice, day 6", "result": 0}, {"measurement": "Death number during observation", "setting": "[4]; female mice, day 7", "result": 0}, {"measurement": "Death rate", "setting": "[4]; male mice", "result": 0, "unit": "%"}, {"measurement": "Death number during observation", "setting": "[4]; male mice, day 1", "result": 0}, {"measurement": "Death number during observation", "setting": "[4]; male mice, day 2", "result": 0}, {"measurement": "Death number during observation", "setting": "[4]; male mice, day 3", "result": 0}, {"measurement": "Death number during observation", "setting": "[4]; male mice, day 4", "result": 0}, {"measurement": "Death number during observation", "setting": "[4]; male mice, day 5", "result": 0}, {"measurement": "Death number during observation", "setting": "[4]; male mice, day 6", "result": 0}, {"measurement": "Death number during observation", "setting": "[4]; male mice, day 7", "result": 0}]}]}
